Measurements taken from patent publication US20040229205A1, “Compositions for the storage of platelets” (priority 2003, published 2004).

Tests used:
platelets = assay: Preservation of platelet function in stored platelets, methods of examples 1 to 6; type: cell-based
Experimental: It is known that other pentoses may have similar effects as D-Ribose, either through intracellular conversion to riboe or a direct effect. Ribulose-5-phosphate, xylulose-5-phosphate and xylitol were tested for preservation of activity in stored platelets according to the methods of examples 1 to 6.
(§1) Bacterial contamination was measured by colony counts in standard Petri dishes that had been inculated with the test solution. It is assumed that the millimolar glucose concentration in most platelet storage solutions contributes to the growth of bacteria. As noted above, Murphy (Table II) discloses a glucose-free solution for the storage of platelets. Elimination of reduction of glucose levels from millimolar to micromolar concentrations has a profound effect in reducing bacterial contamination, however, platelet function at five days, as measured by ATP secretion and P-selectin expression, was poor.

[1] = system: platelets (ATP secretion); assay: ATP secretion of stored platelets in response to 10 nM thrombin (luciferin/luciferase); type: cell-based
From the text: Yet another measure of platelet function is the secretion of ATP. Platelets that are able to function well are able to secrete ATP while cells that have already been activated or have lost funciton in other ways cannot secrete ATP.
The platelet dense granules shown in FIG. 1 contain ATP which is released in response to platelet agonists such as thrombin, collagen or adenosine diphosphate (ADP). The release reaction of ATP from platelets serves as another method to monitor platelet function. There are many methods to analyze ATP. A convenient method is the well known luciferin/luciferase reaction (Sigma Chemical, St. Louis). This assay is derived from the light producing system of the firefly. The substrate luciferin, in the presence of ATP, is cleaved by the enzyme luciferase, accompanied by the emission of light. The emitted light is measured by a photomultiplier tube
Platelet suspensions containing about 350 units in 40 μl were mixed with 10 μl luciferin/luciferase reagent. An agonist is injected. As the platelet dense granules release ATP, the bioluminescent reaction occurs, which is measured by the photomultiplier tube. […] The rate of reaction is recorded and as platelet function decays, the rate decays. Total ATP was measured by lysing the cells with Triton and determining ATP content. The results as presented in Table III are expressed as intact rate of ATP secretion.

platelets (aggregation) = assay: Platelet aggregation on thrombin challenge (optical density / aggregometer); type: cell-based
From the text: Another parameter of platelet function is the ability to aggregate when challenged by an agonist. The platelet suspension is dense and milky white. Aggregation and subsequent settling of the aggregates can be estimated visually, or measured with a densitometer.
As a second measure of the effect of ribose on platelets, platelet aggregation was estimated. Platelet aggregation is a crucial function of platelet activity; platelets that cannot aggregate are essentially nonfunctional. Platelets were stored as above. The optical density of the suspension was measured before and after thrombin challenge.
Platelet aggregation was measured with a platelet aggregometer (Chronolog, Inc., Irvine, Calif.). Platelet-rich, turbid suspensions were stirred in a cuvette and the transmittance of light through the sample relative to a platelet poor blank is recorded. When a aggregating agent is added, activated platelets with exposed fibrinogen receptors (GPIIbIIIa) are brought in close contact with each other in a medium containing calcium and fibrinogen and form increasingly large platelet aggregates, accompanied by a decrease in turbidity. The change in optical density was then translated by the instrument to percent aggregation. Simple stated, as platelets clump, more light passes through the cuvette.

[2] = system: platelets (P-selectin expression); assay: P-selectin expression of stored platelets by flow cytometry, basal and after 10 nM thrombin challenge; type: cell-based; conditions: for Difference (% capable of being activated) / % Positive / P-Selectin Expression: five day stored platelets; for retained P-selectin expression activity: thrombin challenge
From the text: Internal protein expression may be measured by conjugation of a molecule with a fluorescent dye, followed by sorting in a fluorescent cell sorter. In general, it is preferable to use two monoclonal antibodies, one that binds a cell surface molecule expressed and a second that binds a cell surface molecule that is expressed only after activation. Each monoclonal antibody is conjugated to a different colored dye, that can be distinguished by spectrofluorometry. In the preferred embodiment, the normally expressed cell surface molecule is GPIIbIIIa; the cell surface molecule expressed after activation is P-selectin. It is well know in the art to make monoclonal antibodies to proteins. U.S. Pat. No. 5,470,738, issued in 1995 to Freilich et al, is one example of a method of making monoclonal antibodies to GPIIIa. Another anti-platelet monoclonal antibody is that to GP IV, as disclosed by U.S. Pat. No. 5,231,025, issued in 1993 to Gralnisch. However, it is most convenient to purchase antibodies commercially from such companies as Becton-Dickinson (Philadelphia).
A basal measurement of spontaneous activation is obtained and the cells are then challenged with an agonist. The difference between cells challenged to activate minus the basal measurement is a measure of cell function. In the preferred embodiment, the agonist is 10 nM thrombin.
P-selectin is an internal protein that is exposed on the surface of the platelet after activation. Once activated, platelets cannot be activated again, that is, they are nonfunctional. Platelets which have aggregated are likewise nonfunctional. Measurement of P-selectin before and after activation with thrombin provides a measure of the ability of the platelets to be activated.
P-selectin expression in response to a challenge of 10 nM thrombin is a highly accurate and quantitative method to assess platelet function using flow cytometry techniques. A monoclonal antibody to the platelet GPIIbIIIa receptor (Becton-Dickinson) is conjugated with green fluorescence, marking all platelets with a green detection. […] About 10,000 to 25,000 platelets are counted and measured for P-selectin expression and the % positive cells are defined as activated platelets that express P-selectin. Platelets that are activated are not capable of being activated a second time; that is, they are essentially nonfunctional.
It was proposed years ago by Dawson (Transfusion 21:215-218. (1981)) that ribose at the concentration of 15 mM is beneficial to stored whole blood. It was assumed that ribose functioned by raising the energy levels of the cells, as discussed at length in U.S. Pat. No. 6,159,942. […] However, it should be noted that the platelet storage milieu is an austere environment, lacking the homeostatic and buffering mechanisms of the kidneys, lungs and livers of an intact organism. Various concentrations of D-Ribose were tested to determine the optimum level for platelet storage. […] Platelet concentrate bags were obtained from a local transfusion center within two hours of collection from the donor. The platelets were either supplemented with the D-Ribose cocktail directly into the bag or the platelets were divided into a series of 10 tubes into each of which two ml of platelets were added. Platelet function was assessed by ATP secretion, platelet aggregation, P-selectin expression, platelet count and pH. Platelet function was measured every 24 hours. The bags and tubes were placed on a rotating wheel at room temperature for the duration of the experiment.
For the concentration test, platelets were stored for five days in standard platelet storage solution at room temperature and gentle agitation with or without various levels of ribose. At five days the P-selectin expression test was performed.

[3] = system: platelets (adhesion to adventitia of human renal artery); assay: Platelet adhesion assay in microflow chamber on human renal artery section; type: cell-based; conditions: 1.5 mM D-ribose solution, eight days of storage
Experimental: The ability of platelets to aggregate as a measure of function can also be assayed by ability to adhere to and […] on tissue, such as the adventitia and intima of arteries. Normal, healthy, functional platelets will show deposition and attachment onto tissue whereas compromised, poorly functional or nonfunctional platelets will have decreased levels of platelet attachment. Platelet rich plasma (PRP) was prepared from a random donor bag of platelets, which were harvested and resuspended in plasma at a concentration of at least 10^6 platelets per milliliter. On Day 1, the platelets were allowed to stand at room temperature for eight hours and were then tested in the platelet adhesion assay. Fresh frozen human renal artery was sectioned and placed flat on a microscope slide. A microflow chamber was constructed to pull PRP across the section at a defined flow rate and defined shear rate. The direction of flow is adventitia, through the media and intima and into the lumen, as illustrated in FIG. 10. Functional platelets will adhere to the adventitia and form accretion zones that initiate at the adventitia (the outside of the blood vessel) and extend across the media and intima. Non-functional platelets are unable to adhere to the adventitia. Therefore, the adhesion assay is a sensitive test of platelet function. Following the baseline test, a portion of the platelet suspension was set aside as control, without additional solution added. Another portion of the platelets were suspended in a solution containing: [table]

[4] = 30 grams of ribose each day, subjects; cited from earlier work
bacteria = assay: Bacterial contamination of platelet storage solution by colony counts in Petri dishes; conditions: D-Ribose added to the storage cocktail
Experimental: as §1

[5] = 1.5 mM down to 150 pM, analyzed every 24 hours

OC[C@@H](O)[C@H](O)[C@@H](O)CO [xylitol]
preservation of platelet function (platelets): some benefit

O=C(CO)[C@@H](O)[C@H](O)COP(=O)(O)O [xylulose-5-phosphate, Xylulose-5-phosphate]
ATP secretion, retention of basal value ([1]; five days storage): 64.5% | platelet aggregation (platelets (aggregation); five days storage): weak | P-selectin expression in response to 10 nM thrombin challenge ([2]; five-day treated platelets): 67.7% | P-selectin spontaneous expression ([2]; five-day treated platelets): 37.5%

O=C[C@H](O)[C@H](O)[C@H](O)CO [D-Ribose]
platelet adhesion ([3]; 30 seconds of flow): very early platelet adhesion at the adventitia | platelet adhesion and accretion ([3]; 2.5 minutes of flow): significant platelet adhesion and accretion zones | platelet adhesion and accretion ([3]; 4.5 minutes of flow): formed a large platelet mass at the adventitia | tolerance of ingestion [4]: no ill effects | preservative effect on ATP secretion ([1]; 1.5 nM D-Ribose): no preservative effect | rise of total ATP content of treated cells ([1]; 150 nM D-Ribose): more than 10% | Rate of ATP secretion ([1]; 150 nM D-Ribose, day 1, 10 nM thrombin): 1.9 | Total ATP ([1]; 150 nM D-Ribose, day 1, cells lysed with Triton): 3.0 | Rate of ATP secretion ([1]; 150 nM D-Ribose, day 3, 10 nM thrombin): 1.9 | Total ATP ([1]; 150 nM D-Ribose, day 3, cells lysed with Triton): 3.2 | Rate of ATP secretion ([1]; 150 nM D-Ribose, day 5, 10 nM thrombin): 1.7 | Total ATP ([1]; 150 nM D-Ribose, day 5, cells lysed with Triton): 3.4 | Rate of ATP secretion ([1]; 150 nM D-Ribose, day 7, 10 nM thrombin): 1.6 | Total ATP ([1]; 150 nM D-Ribose, day 7, cells lysed with Triton): 3.4 | effect on ATP secretion ([1]; 15 mM D-Ribose): no effect | toxicity to platelets ([1]; 15 mM D-Ribose): toxic to platelets | ATP secretion activity, % of baseline ([1]; optimal amounts of D-Ribose (150 nM), day 7): > 80% | mean ATP secretion activity, % of baseline ([1]; optimal amounts of D-Ribose (150 nM), five days): 90% | incidence of bacterial contamination (bacteria): lower incidence of bacterial contamination | platelet samples with aggressive aggregation response to 10 nM thrombin (platelets (aggregation); day 3): all five | platelet samples responding (aggregation) to 10 nM thrombin (platelets (aggregation); day five): four out of five | platelet samples able to aggregate in response to thrombin challenge (platelets (aggregation); day seven): three out of five | aggregation on thrombin challenge (platelets (aggregation); platelets stored in 150 pM D-Ribose): no aggregation | aggregation on thrombin challenge (platelets (aggregation); platelets stored in 150 nM D-Ribose): strong aggregation | aggregation on thrombin challenge (platelets (aggregation); platelets stored in 15 μM D-Ribose): very weak effect | aggregation on thrombin challenge (platelets (aggregation); platelets stored in 1.5 mM D-Ribose): no aggregation | Difference (% capable of being activated) ([2]; 150 pM D-Ribose): 10.9% | % Positive ([2]; 150 pM D-Ribose, + thrombin): 42.6% | P-Selectin Expression ([2]; 150 pM D-Ribose, + thrombin): 15475 | % Positive ([2]; 150 pM D-Ribose, basal): 31.7% | P-Selectin Expression ([2]; 150 pM D-Ribose, basal): 11260 | preserving function (P-selectin expression test) ([2]; 150 pM D-Ribose, five days storage): ineffective | retained activity ([2]; 150 nM D-Ribose, 8 days of storage): greater than 75% | retained activity ([2]; 150 nM D-Ribose, 10 days of storage): greater than 50% | Difference (% capable of being activated) ([2]; 150 nM D-Ribose): 60.6% | % Positive ([2]; 150 nM D-Ribose, + thrombin): 65.7% | P-Selectin Expression ([2]; 150 nM D-Ribose, + thrombin): 41480 | % Positive ([2]; 150 nM D-Ribose, basal): 5.1% | P-Selectin Expression ([2]; 150 nM D-Ribose, basal): 2465 | retained P-selectin expression activity ([2]; 150 nM D-Ribose, five days storage): about 60% | retention of activation activity on activation with thrombin ([2]; 153 nM D-Ribose, three days storage): 78.8% | positive (activated) cells ([2]; 153 nM D-Ribose, three days storage, basal): 5% | Difference (% capable of being activated) ([2]; 15 μM D-Ribose): 58.3% | % Positive ([2]; 15 μM D-Ribose, + thrombin): 64.4% | P-Selectin Expression ([2]; 15 μM D-Ribose, + thrombin): 34960 | % Positive ([2]; 15 μM D-Ribose, basal): 6.1% | P-Selectin Expression ([2]; 15 μM D-Ribose, basal): 3275 | Difference (% capable of being activated) ([2]; 1.5 mM D-Ribose): 34.4% | % Positive ([2]; 1.5 mM D-Ribose, + thrombin): 60.0% | P-Selectin Expression ([2]; 1.5 mM D-Ribose, + thrombin): 32400 | % Positive ([2]; 1.5 mM D-Ribose, basal): 40.4% | P-Selectin Expression ([2]; 1.5 mM D-Ribose, basal): 21605 | retained P-selectin expression activity ([2]; 1.5 mM D-Ribose, five days storage): about 60%

O=C(CO)[C@H](O)[C@H](O)COP(=O)(O)O [Ribulose-5-phosphate]
ATP secretion in response to 10 nM thrombin versus controls [1, 5]: No difference from controls | platelet aggregation versus controls (platelets (aggregation); [5]): No difference from controls | P-selectin expression in response to thrombin challenge versus controls [2, 5]: No difference from controls
